Experimental data from US7601716B2, “Pyridopyrazines and derivatives thereof as ALK and c-Met inhibitors” (Cephalon, Inc., priority 2006, dated 2009).

Assays:
NPM-ALK = molecular target: T1, NPM-ALK (Homo sapiens, UniProt Q9UM73); assay: ALK Cellular Assay (phospho-NPM-ALK immunoblot / ALK tyrosine phosphorylation ELISA); type: cell-based; details: for inhibition at 1 µM: NPM-ALK, 1 μM compound, read-out: ALK Cellular Activity Inhibition Score at 1 μM
T1 construct: a fusion protein consisting of nucleophosmin (NMP) and the intracellular domain of ALK; the other entry of the earlier key: NPM1 (P06748, Nucleophosmin)
Description: Immunoblotting of phospho-NPM-ALK and total NPM-ALK from cell lysates was carried out according to the protocols provided by the antibody suppliers. In brief, after treatment of Example compounds, cells were lysed in Frak lysis buffer [10 mM Tris, pH 7.5, 1% Triton X-100, 50 mM sodium chloride, 20 mM sodium fluoride, 2 mM sodium pyrophosphate, 0.1% BSA, plus freshly prepared 1 mM activated sodium vanadate, 1 mM dithiothreitol (#165680050, ARCOS Organics, Geel, Belgium), and 1 mM PMSF (#837091, Boehringer Mannheim Biochemicals, Indianapolis, Ind.), protease inhibitors cocktail III (#539134-1Set, Calbiochem, 1:100 dilution)]. After brief sonication, the lysates were cleared by centrifugation, mixed with sample buffer and subjected to SDS-PAGE. Following transfer to membranes, the membranes were blotted with either rabbit phospho-NPM-ALK(Y664) (Cat^#3341) or ALK antibody (Cat^#3342) from Cell Signaling Technology (Beverly, Mass.), and then the HRP-conjugated goat anti-rabbit antibodies (Santa Cruz, Calif.) after washed in TBS/0.2% Tween-20. The protein bands were visualized with ECL Western Blotting detection reagents (RPN2106, Amersham Biosciences, Buckinghamshire, UK) and quantitated with gel-pro analyzer 3.1 software.
To measure ALK tyrosine phosphorylation in cells with an ELISA assay, fluoronunc plates (Cat^#437796, Nalge Nunc, Rochester, N.Y.) were pre-coated with goat anti-mouse IgG, and incubated with the capture mouse ALK antibody (Cat^#35-4300, Zymed, Seattle, Wash.) diluted 1:1000 in Superblock (Pierce, Rockford, Ill.). Following blocking, cell lysates were added to plates and incubated overnight at 4° C. Plates were incubated with the detecting antibody, anti-phospho-ALK (Y664) (Cell Signaling Technology), diluted at 1:2000, followed by incubation with goat anti-rabbit-IgG alkaline phosphatase to amplify the detection. Wells were exposed to the fluorogenic substrate 4-MeUP (#3368-04-5, Calbiochem) and the signal quantified using a CytoFluor® (series 4000) Fluorescence Multi-Well Plate Reader (Applied Biosystems, Foster City, Calif.).

[1] = molecular target: T2, c-Met (cytoplasmic domain) (Homo sapiens, UniProt P08581); assay: c-Met Kinase Assay (ELISA/TRF, PLC-γ substrate); type: biochemical; details: 3 μM ATP (Km level); read-out: c-Met Kinase Inhibition (IC50)
T2 construct: Reactions were initiated with 30 ng/mL c-Met (cytoplasmic domain, Invitrogen Corporation #PV3143); purchased Invitrogen Corporation PV3143
How it was run: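 c-Met cytoplasmic domain (30 ng/mL) phosphorylates plate-coated GST–PLC-γ for 15 min at 37 °C. Phosphotyrosine detected with Eu-labeled PT66 antibody by time-resolved fluorescence. IC50 from variable-slope sigmoidal fit of % inhibition vs log concentration.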

[2] = molecular target: baculovirus-expressed ALK (Homo sapiens, UniProt Q9UM73); assay: ALK Kinase Assay (ELISA/TRF, PLC-γ substrate); type: biochemical; details: read-out: ALK Kinase Inhibition (IC50); note: 1 µM ATP (Km level)
How it was run: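 Plates coated with GST–PLC-γ fusion substrate (10 μg/mL in TBS); reaction started with 30 ng/ml ALK, run 15 minutes at 37° C. Phosphotyrosine detected by Eu-N1 PT66 antibody (1 hour, 37° C) and time-resolved fluorescence after enhancement. IC50 from sigmoidal variable-slope fit of percent inhibition versus log concentration.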

T2 sequence (P08581 956-1390 limits assumed): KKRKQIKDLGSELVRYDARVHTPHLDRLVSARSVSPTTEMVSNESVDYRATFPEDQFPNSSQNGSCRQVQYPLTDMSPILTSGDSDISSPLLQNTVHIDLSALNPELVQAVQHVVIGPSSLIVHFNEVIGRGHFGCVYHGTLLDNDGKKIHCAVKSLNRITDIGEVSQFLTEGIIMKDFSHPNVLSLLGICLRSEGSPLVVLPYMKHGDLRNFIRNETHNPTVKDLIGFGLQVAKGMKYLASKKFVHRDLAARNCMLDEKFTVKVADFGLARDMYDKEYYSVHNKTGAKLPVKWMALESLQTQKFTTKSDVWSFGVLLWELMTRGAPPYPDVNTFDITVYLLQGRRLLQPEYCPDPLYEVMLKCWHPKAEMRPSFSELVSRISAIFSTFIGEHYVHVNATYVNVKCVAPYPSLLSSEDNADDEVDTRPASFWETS
Chain of baculovirus-expressed ALK (Q9UM73 19-1620): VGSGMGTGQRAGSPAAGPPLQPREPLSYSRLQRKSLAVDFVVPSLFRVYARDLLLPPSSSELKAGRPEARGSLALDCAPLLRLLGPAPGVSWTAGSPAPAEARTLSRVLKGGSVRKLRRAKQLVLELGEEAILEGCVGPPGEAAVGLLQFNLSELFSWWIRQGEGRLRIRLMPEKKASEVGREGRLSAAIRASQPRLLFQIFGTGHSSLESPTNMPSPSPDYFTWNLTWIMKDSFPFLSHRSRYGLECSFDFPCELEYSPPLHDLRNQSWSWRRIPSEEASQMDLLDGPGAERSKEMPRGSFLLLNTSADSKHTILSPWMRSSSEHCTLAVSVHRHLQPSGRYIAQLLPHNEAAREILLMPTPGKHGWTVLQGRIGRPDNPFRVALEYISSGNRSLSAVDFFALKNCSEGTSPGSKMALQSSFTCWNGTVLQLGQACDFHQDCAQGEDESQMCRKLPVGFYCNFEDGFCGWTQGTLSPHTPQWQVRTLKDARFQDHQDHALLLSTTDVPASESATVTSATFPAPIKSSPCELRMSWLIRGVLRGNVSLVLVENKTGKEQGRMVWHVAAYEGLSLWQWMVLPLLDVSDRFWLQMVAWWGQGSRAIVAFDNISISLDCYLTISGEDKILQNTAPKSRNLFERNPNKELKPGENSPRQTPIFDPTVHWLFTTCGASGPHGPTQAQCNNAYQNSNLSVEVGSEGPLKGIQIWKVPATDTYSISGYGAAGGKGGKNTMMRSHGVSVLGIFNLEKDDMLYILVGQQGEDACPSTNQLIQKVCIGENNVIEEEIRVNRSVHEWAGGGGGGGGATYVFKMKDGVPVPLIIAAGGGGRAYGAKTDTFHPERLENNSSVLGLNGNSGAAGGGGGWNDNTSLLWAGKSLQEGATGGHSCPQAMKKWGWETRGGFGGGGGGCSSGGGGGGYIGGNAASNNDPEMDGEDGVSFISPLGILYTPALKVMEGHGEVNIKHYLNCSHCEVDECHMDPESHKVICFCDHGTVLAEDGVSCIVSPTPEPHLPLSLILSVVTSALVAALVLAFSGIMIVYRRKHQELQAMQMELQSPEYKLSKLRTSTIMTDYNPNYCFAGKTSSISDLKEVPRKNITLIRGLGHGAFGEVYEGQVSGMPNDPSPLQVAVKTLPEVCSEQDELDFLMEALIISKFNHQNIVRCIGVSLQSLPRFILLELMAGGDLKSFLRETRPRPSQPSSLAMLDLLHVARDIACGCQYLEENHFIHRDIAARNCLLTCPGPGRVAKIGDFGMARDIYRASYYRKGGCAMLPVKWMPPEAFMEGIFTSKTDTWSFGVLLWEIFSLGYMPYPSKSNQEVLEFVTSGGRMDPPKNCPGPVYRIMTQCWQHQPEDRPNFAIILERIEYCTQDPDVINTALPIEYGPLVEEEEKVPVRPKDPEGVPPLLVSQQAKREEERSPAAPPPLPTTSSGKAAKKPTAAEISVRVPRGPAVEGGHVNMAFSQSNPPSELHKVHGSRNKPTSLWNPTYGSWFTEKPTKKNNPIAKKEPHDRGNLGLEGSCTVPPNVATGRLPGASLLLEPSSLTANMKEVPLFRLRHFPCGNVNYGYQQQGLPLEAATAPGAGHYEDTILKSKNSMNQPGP
T1 sequence (Q9UM73 with tags, fused parts or gaps): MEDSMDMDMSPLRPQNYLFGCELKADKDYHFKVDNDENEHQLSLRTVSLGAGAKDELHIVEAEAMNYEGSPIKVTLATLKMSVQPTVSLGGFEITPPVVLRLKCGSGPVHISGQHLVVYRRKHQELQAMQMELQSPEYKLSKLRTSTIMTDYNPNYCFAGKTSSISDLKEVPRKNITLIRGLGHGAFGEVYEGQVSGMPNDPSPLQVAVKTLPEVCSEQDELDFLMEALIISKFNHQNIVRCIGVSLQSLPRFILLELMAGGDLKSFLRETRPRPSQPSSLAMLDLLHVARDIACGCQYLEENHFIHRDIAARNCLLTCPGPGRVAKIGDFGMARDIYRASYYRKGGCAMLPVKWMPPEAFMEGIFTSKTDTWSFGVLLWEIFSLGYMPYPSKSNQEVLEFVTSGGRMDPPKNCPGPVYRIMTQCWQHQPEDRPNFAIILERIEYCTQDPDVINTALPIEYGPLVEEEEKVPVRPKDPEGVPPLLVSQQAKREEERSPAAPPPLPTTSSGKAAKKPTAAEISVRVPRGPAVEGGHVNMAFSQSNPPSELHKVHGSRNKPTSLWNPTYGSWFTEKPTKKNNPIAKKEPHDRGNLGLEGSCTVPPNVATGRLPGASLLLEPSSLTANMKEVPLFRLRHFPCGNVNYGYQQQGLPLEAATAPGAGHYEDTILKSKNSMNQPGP

Row | Compound | IC50 (NPM-ALK) | IC50 [1] | IC50 [2] | melting point | inhibition at 1 µM (NPM-ALK)
1 | CC(=O)N1CCN(c2cc(-c3cnc4c(c3)N(Cc3cc(Cl)ccc3C(F)(F)F)CCN4)ccn2)CC1 [Example 199, 1-[4-(4-{1-[5-Chloro-2-(trifluoromethyl)benzyl]-1,2,3,4-tetrahydro-pyrido[2,3-b]pyrazin-7-yl}pyridin-2-yl)piperazin-1-yl]ethanone] | ≤ 0.25 µM | 1 to 10 µM | < 0.1 µM | 241 °C | 
2 | FC(F)(F)c1ccc(Cl)cc1CN1CCNc2ncc(-c3ccnc(N4CCNCC4)c3)cc21 [Example 198, 1-[5-Chloro-2-(trifluoromethyl)benzyl]-7-(2-piperazin-1-yl-pyridin-4-yl)-1,2,3,4-tetrahydro-pyrido[2,3-b]pyrazine] | ≤ 0.25 µM | 0.1 to 1 µM | < 0.1 µM | 189 °C | 
3 | O=C(c1ccc(-c2cnc3c(c2)N(Cc2cc(F)ccc2F)CCN3)cc1)N1CCC(N2CCCC2)CC1 [Example 66, {4-[1-(2,5-Difluorobenzyl)-1,2,3,4-tetrahydropyrido[2,3-b]pyrazin-7-yl]phenyl}-(4-(pyrrolidin-1-yl)piperidin-1-yl)methanone] | ≤ 0.25 µM | 1 to 10 µM | < 0.1 µM | 202 to 204 °C | 
4 | O=C(c1ccc(-c2cnc3c(c2)N(Cc2cc(Cl)ccc2Cl)C(=O)CN3)cc1)N1CCC(N2CCCC2)CC1 [Example 156, 1-(2,5-Dichlorobenzyl)-7-[4-(4-(pyrrolidin-1-yl)piperidine-1-carbonyl)phenyl]-3,4-dihydro-1H-pyrido[2,3-b]pyrazin-2-one] | 0.251 to 0.5 µM | 0.1 to 1 µM | < 0.1 µM | > 200 °C | 
5 | O=C1CNc2ncc(-c3ccc(C(=O)N4CCC[C@H]4CN4CCCC4)cc3)cc2N1Cc1c(Cl)cccc1Cl [Example 141, S-1-(2,6-Dichlorobenzyl)-7-[4-((2-pyrrolidin-1-yl)methylpyrrolidine-1-carbonyl)phenyl]-3,4-dihydro-1H-pyrido[2,3-b]pyrazin-2-one] |  | 1 to 10 µM | 0.1 to 1 µM | 188 °C | 51 to 75%
6 | O=C1CNc2ncc(-c3ccc(NS(=O)(=O)CCN4CCCC4)cc3)cc2N1Cc1cc(F)ccc1F [Example 48, 2-Pyrrolidin-1-yl-ethanesulfonic acid{4-[1-(2,5-difluorobenzyl)-2-oxo-1,2,3,4-tetrahydropyrido[2,3-b]pyrazin-7-yl]phenyl}-amide] |  | 1 to 10 µM | 0.1 to 1 µM | > 300 °C | 26 to 50%
7 | O=C(O)c1ccc(-c2cnc3c(c2)N(Cc2c(F)ccc(F)c2Cl)C(=O)CN3)cc1 [Example 6, 4-[1-(2-Chloro-3,6-difluorobenzyl)-2-oxo-1,2,3,4-tetrahydropyrido[2,3-b]pyrazin-7-yl]benzoic acid] |  | 10 to 100 µM | 0.1 to 1 µM | > 300 °C | 0 to 25%
8 | O=C(NCCN1CCCC1)c1ccc(-c2cnc3c(c2)N(Cc2cc(F)ccc2F)C(=O)CN3)cc1 [Example 58, 4-[1-(2,5-Difluorobenzyl)-2-oxo-1,2,3,4-tetrahydropyrido[2,3-b]pyrazin-7-yl]-N-(2-pyrrolidin-1-yl-ethyl)benzamide] |  | 10 to 100 µM | 0.1 to 1 µM | 235 °C (dec.) | 0 to 25%
9 | O=C1CNc2ncc(-c3ccc(C(=O)N4CCC[C@H]4CN4CCCC4)cc3)cc2N1Cc1cc(F)ccc1F [Example 57, 1-(2,5-Difluorobenzyl)-7-[4-((S)-2-[(pyrrolidin-1-yl)methyl]pyrrolidine-1-carbonyl)phenyl]-3,4-dihydro-1H-pyrido[2,3-b]pyrazin-2-one] |  | 0.1 to 1 µM | 0.1 to 1 µM | 125 °C | 0 to 25%

Second part, the compound after the results:

Row | IC50 (NPM-ALK) | IC50 [1] | IC50 [2] | melting point | inhibition at 1 µM (NPM-ALK) | Compound
10 | 0.751 to 1 µM | 1 to 10 µM | 0.1 to 1 µM | 271 °C |  | FC(F)(F)c1ccc(Cl)cc1CN1CCNc2ncc(-c3cn[nH]c3)cc21 [Example 200, 1-[5-Chloro-2-(trifluoromethyl)benzyl]-7-(1H-pyrazol-4-yl)-1,2,3,4-tetrahydro-pyrido[2,3-b]pyrazine]
11 | ≤ 0.25 µM | 1 to 10 µM | < 0.1 µM | 194 to 195 °C |  | CN1CCN(c2ncc(-c3cnc4c(c3)N(Cc3c(F)ccc(F)c3Cl)CCN4)cn2)CC1 [Example 106, 1-(2-Chloro-3,6-difluorobenzyl)-7-[2-(4-methylpiperazin-1-yl)-pyrimidin-5-yl]-1,2,3,4-tetrahydropyrido[2,3-b]pyrazine]
12 | ≤ 0.25 µM | 1 to 10 µM | < 0.1 µM | 143 to 144 °C |  | O=C(c1ccc(-c2cnc3c(c2)N(Cc2cc(F)ccc2F)CCN3)cc1)N1CCC[C@H]1CN1CCCC1 [Example 65, {4-[1-(2,5-Difluorobenzyl)-1,2,3,4-tetrahydropyrido[2,3-b]pyrazin-7-yl]phenyl}-((S)-2-((pyrrolidin-1-yl)methyl)pyrrolidin-1-yl)methanone]
13 | 0.751 to 1 µM | 1 to 10 µM | < 0.1 µM |  |  | Fc1ccc(F)c(CN2CCNc3ncc(-c4ccc(N5CCOCC5)nc4)cc32)c1Cl [Example 105, 1-(2-Chloro-3,6-difluorobenzyl)-7-(6-morpholin-4-yl-pyridin-3-yl)-1,2,3,4-tetrahydropyrido[2,3-b]pyrazine]
14 |  | 10 to 100 µM | 0.1 to 1 µM |  | 26 to 50% | O=S(=O)(CCN1CCCC1)Nc1ccc(-c2cnc3c(c2)N(Cc2cc(F)ccc2F)CCN3)cc1 [Example 51, 2-Pyrrolidin-1-yl-ethanesulfonic acid{4-[1-(2,5-difluorobenzyl)-1,2,3,4-tetrahydropyrido[2,3-b]pyrazin-7-yl]phenyl}-amide]
15 | 0.251 to 0.5 µM | 1 to 10 µM | < 0.1 µM |  |  | CN1CCN(c2ccc(-c3cnc4c(c3)N(Cc3cc(Cl)ccc3Cl)CCN4)cn2)CC1 [Example 180, 1-(2,5-Dichlorobenzyl)-7-[6-(4-methylpiperazin-1-yl)pyridin-3-yl]-1,2,3,4-tetrahydropyrido[2,3-b]pyrazine]
